In paper PMC11323011, “Combatting Antibiotic-Resistant Staphylococcus aureus: Discovery of TST1N-224, a Potent Inhibitor Targeting Response Regulator VraRC, through Pharmacophore-Based Screening and Molecular Characterizations” (Journal of Chemical Information and Modeling, 2024):

Molecular target: T1, VraRC (C-terminal DNA-binding domain of response regulator VraR) (Staphylococcus aureus, UniProt Q7A4R9)
T1 construct: residues 138-209), C-terminal His-tag
Test: LSPR (VraRC immobilized on NTA chip, […] fit); supported by 1H-15N HSQC NMR titration and FP inhibition of DNA binding (IC50 […])

T1 sequence (Q7A4R9 138-209): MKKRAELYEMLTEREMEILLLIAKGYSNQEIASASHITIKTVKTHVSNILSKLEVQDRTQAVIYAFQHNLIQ

TST1N-224 gave a Kd of 23.4 ± 1.2 µM.
